From publication PMC6222307, “Phenanthrenes from Juncus Compressus Jacq. with Promising Antiproliferative and Anti-HSV-2 Activities” (Molecules : A Journal of Synthetic Chemistry and Natural …, 2018)
Like-named read-outs stand apart in the source and are kept apart here. One block for each molecule: values may come before it.

Experiments:
SiHa cells = assay: MTT antiproliferative assay, SiHa; format: cell-based, human; conditions: 72 h; for inhibition at 10 µM / inhibition at 30 µM: Homo sapiens, read-out: Growth Inhibition (%) ± SEM
Experimental: (§1) The isolated phenanthrenes (Compounds 1–9) were tested for their antiproliferative activity against three human tumor cell lines (HeLa and SiHa (cervix adenocarcinoma) and A2780 (ovarian carcinoma)) using the 3-(4,5-dimethylthiazol-2-yl)-2,5-diphenyltetrazolium bromide (MTT) test with cisplatin as a positive control (Table 3). […] Based on the presented results, some structure-activity relationships could be obtained. […] Compounds bearing free hydroxy groups (in case of Compound 3) exerted more pronounced action than its methyl ether (Compound 7) or its oxymethylene derivative (Compound 6). The substantial difference in the activities of the isolated dimers (Compounds 2 and 8) could be attributed to the presence of a methyl group at C-6, which is favored in the monomers, too. Both the other cell lines were substantially less sensitive. […] Similarly, none of the presented agents elicited substantial (>40%) inhibition of the cell cancer proliferation during the applied 72 h of incubation against SiHa cells at 10 μM, and therefore, IC50 values were not determined.
(§2) The antiproliferative properties of the isolated phenanthrenes were determined on a panel of human malignant cell lines isolated from cervical (HeLa and SiHa) and ovarian cancers (A2780) purchased from the European Collection of Cell Cultures (ECCAC, Salisbury, UK). Cells were cultivated in minimal essential medium supplemented with 10% fetal bovine serum, 1% non-essential amino acids and an antibiotic-antimycotic mixture. All media and supplements were obtained from Lonza Group Ltd., (Basel, Switzerland). Near-confluent cancer cells were seeded onto a 96-well microplate (5000 cells/well) and after an overnight standing, medium containing the tested compounds at 10 and 30 µM was added. After incubation for 72 h under cell culture conditions, the living cells were assayed by the addition of 20 µL of 5 mg/mL 3-(4,5-dimethylthiazol-2-yl)-2,5-diphenyltetrazolium bromide (MTT) solution. MTT was converted by intact mitochondrial enzymes and precipitated as purple crystals during a 4 h contact period. The medium was then removed and the formazan was dissolved in 100 µL of DMSO during a 60 min period of shaking at 37 °C. Finally, the reduced MTT was assayed at 545 nm using a microplate reader. […] All in vitro experiments were carried out on two microplates with five parallel wells. Stock solutions of the tested compounds (10 mM) were prepared in DMSO. […] Cisplatin (Ebewe Pharma GmbH, Unterach, Austria) was used as a reference agent.

HeLa cells [1] = assay: MTT antiproliferative assay, HeLa; format: cell-based, human; conditions: 72 h; for inhibition at 10 µM / inhibition at 30 µM: read-out: Growth Inhibition (%) ± SEM; for IC50: read-out: Calculated IC50 Value
Experimental: as §1, §2

A2780 cells = assay: MTT antiproliferative assay, A2780; format: cell-based, human; conditions: for inhibition at 10 µM / inhibition at 30 µM: read-out: Growth Inhibition (%) ± SEM; for IC50: read-out: Calculated IC50 Value
Experimental: as §1, §2

HeLa cells [2] = system: HeLa cells; design: method as in PMID 26584913; conditions: cited from earlier work
[3] = system: HepG2 (liver hepatocellular carcinoma); design: method as in PMID 26584913; conditions: cited from earlier work
HSV-2 = system: HSV-2; design: method as in PMID 11463529; conditions: 6.25 µM; cited from earlier work
HepG2 = system: HepG2; design: method as in PMID 26072042; conditions: HepG2, CCK-8 assay; cited from earlier work
MCF-7 = system: MCF-7; design: method as in PMID 26072042; conditions: MCF-7, CCK-8 assay; cited from earlier work
SMMC-7721 = system: SMMC-7721; design: method as in PMID 26072042; conditions: SMMC-7721, CCK-8 assay; cited from earlier work
MCF-7 cells [4] = system: MCF-7 cells; design: method as in PMID 23979834; conditions: read-out: cytotoxic activity; cited from earlier work
HeLa cells [5] = system: HeLa cells; design: method as in PMID 23979834; conditions: read-out: cytotoxic activity; cited from earlier work
MCF-7 cells [6] = system: MCF-7 cells; design: method as in PMID 26584913; conditions: cited from earlier work
[7] = Homo sapiens, A2780, 10 μM, 72 h, MTT
[8] = Homo sapiens, A2780, 30 μM, 72 h, MTT

IC50 (HeLa cells [1]; Homo sapiens, MTT): 4.17 µM
Structure (SMILES): C=Cc1cc(CO)cc2c1-c1ccc(O)c(C)c1CC2 [Compound 6, 2-hydroxy-1-methyl-7-oxymethylene-5-vinyl-9,10-dihydrophenanthrene]
inhibition at 10 µM (SiHa cells; 10 μM, MTT): < 10% | inhibition at 30 µM (SiHa cells; 30 μM, MTT): 10.2 ± 1.47% | inhibition at 10 µM (HeLa cells [1]; Homo sapiens, 10 μM, MTT): 96.8 ± 0.28% | inhibition at 30 µM (HeLa cells [1]; Homo sapiens, 30 μM, MTT): 98.77 ± 0.24% | inhibition at 10 µM (A2780 cells; [7]): < 10% | inhibition at 30 µM (A2780 cells; [8]): < 10%

Structure (SMILES): Cc1c(O)ccc2c1ccc1cc(O)cc(C=O)c12 [Dehydroeffusal]
IC50 (HeLa cells [2]): 13.1 µM | IC50 [3]: 12.4 µM

Structure (SMILES): COC(C)c1cc(O)cc2c1-c1ccc(O)c(C)c1CC2 (stereo not drawn) [Compound 4, effususol]
inhibition at 10 µM (SiHa cells; 10 μM, MTT): < 10% | inhibition at 30 µM (SiHa cells; 30 μM, MTT): 14.2 ± 2.75% | inhibition at 10 µM (HeLa cells [1]; Homo sapiens, 10 μM, MTT): < 10% | inhibition at 30 µM (HeLa cells [1]; Homo sapiens, 30 μM, MTT): 30.4 ± 1.91% | inhibition at 10 µM (A2780 cells; [7]): 18.3 ± 0.42% | inhibition at 30 µM (A2780 cells; [8]): 72 ± 1.06%

IC50 (HeLa cells [1]; Homo sapiens, MTT): 3.68 µM
Structure (SMILES): C=Cc1cc(O)cc2c1-c1ccc(O)c(C)c1CC2 [Compound 3, effusol]
inhibition at 10 µM (SiHa cells; 10 μM, MTT): < 10% | inhibition at 30 µM (SiHa cells; 30 μM, MTT): < 10% | inhibition at 10 µM (HeLa cells [1]; Homo sapiens, 10 μM, MTT): 96.37 ± 0.28% | inhibition at 30 µM (HeLa cells [1]; Homo sapiens, 30 μM, MTT): 97.77 ± 0.27% | inhibition at 10 µM (A2780 cells; [7]): < 10% | inhibition at 30 µM (A2780 cells; [8]): 50.5 ± 1.59%

Structure (SMILES): Nc1nc2c(ncn2COCCO)c(=O)[nH]1 [acyclovir]
reduction of HSV-2 yield (HSV-2): 1–5.06 log10

Structure (SMILES): C=Cc1cc(O)cc2c1-c1cc(-c3c(O)cc(C=C)c4c3ccc3c(C)c(O)ccc34)c(O)c(C)c1CC2 [effususin B]
IC50 (HepG2): 12.9 µM | IC50 (MCF-7): 12.5 µM | IC50 (SMMC-7721): 13.6 µM

Structure (SMILES): N.N.[Cl][Pt][Cl] [Cisplatin, reference compound]
Growth Inhibition (%) ± SEM (SiHa cells; 10 μM, MTT): 88.64 ± 0.50% | Growth Inhibition (%) ± SEM (SiHa cells; 30 μM, MTT): 90.18 ± 7.78% | IC50 (SiHa cells; MTT, read-out: Calculated IC50 Value): 7.84 µM | Growth Inhibition (%) ± SEM (HeLa cells [1]; 10 μM, MTT): 42.61 ± 2.33% | Growth Inhibition (%) ± SEM (HeLa cells [1]; 30 μM, MTT): 99.93 ± 0.26% | IC50 (HeLa cells [1]; MTT): 12.4 µM | Growth Inhibition (%) ± SEM (A2780 cells; A2780, 10 μM, 72 h, MTT): 83.57 ± 1.21% | Growth Inhibition (%) ± SEM (A2780 cells; A2780, 30 μM, 72 h, MTT): 95.02 ± 0.28% | IC50 (A2780 cells; A2780, 72 h, MTT): 1.3 µM

Structure (SMILES): C=Cc1cc(O)cc2ccc3c(C)c(O)ccc3c12 [Compound 9, dehydroeffusol]
inhibition at 10 µM (SiHa cells): < 10% | inhibition at 30 µM (SiHa cells): 28.7 ± 2.01% | IC50 (HeLa cells [1]; Homo sapiens): 7.75 µM | inhibition at 10 µM (HeLa cells [1]; Homo sapiens): 75.2 ± 2.48% | inhibition at 30 µM (HeLa cells [1]; Homo sapiens): 96.5 ± 0.32% | inhibition at 10 µM (A2780 cells; Homo sapiens, A2780, 72 h): < 10% | inhibition at 30 µM (A2780 cells; Homo sapiens, A2780, 72 h): 57.3 ± 2.58%

Structure (SMILES): CC(=O)O[C@H]1C(=O)[C@@]2(C)[C@H]([C@H](OC(=O)c3ccccc3)[C@]3(O)C[C@H](OC(=O)[C@H](O)[C@@H](NC(=O)c4ccccc4)c4ccccc4)C(C)=C1C3(C)C)[C@]1(OC(C)=O)CO[C@@H]1C[C@@H]2O [paclitaxel, reference compound]
IC50 (HepG2): 36.8 µM | IC50 (MCF-7): 28.6 µM | IC50 (SMMC-7721): 0.09 µM

IC50 (HeLa cells [1]; Homo sapiens, MTT): 10.7 µM
Structure (SMILES): C=Cc1cc(O)cc2c1-c1ccc(OC)c(C)c1CC2 [Compound 7, 7-hydroxy-1-methyl-2-methoxy-5-vinyl-9,10-dihydrophenanthrene]
inhibition at 10 µM (SiHa cells; 10 μM, MTT): 14.2 ± 0.98% | inhibition at 30 µM (SiHa cells; 30 μM, MTT): 29.5 ± 3.36% | inhibition at 10 µM (HeLa cells [1]; Homo sapiens, 10 μM, MTT): 45.4 ± 1.57% | inhibition at 30 µM (HeLa cells [1]; Homo sapiens, 30 μM, MTT): 92.36 ± 0.23% | inhibition at 10 µM (A2780 cells; [7]): < 10% | inhibition at 30 µM (A2780 cells; [8]): 63.2 ± 2.54%

IC50 (HeLa cells [1]; Homo sapiens, MTT): 11.3 µM | IC50 (A2780 cells; Homo sapiens, A2780, 72 h, MTT): 13.2 µM
Structure (SMILES): C=Cc1c(C)c(O)cc2c1-c1ccc(OC)c(C)c1CC2 [Compound 1, compressin A]
inhibition at 10 µM (SiHa cells; 10 μM, MTT): < 10% | inhibition at 30 µM (SiHa cells; 30 μM, MTT): 38.6 ± 0.78% | inhibition at 10 µM (HeLa cells [1]; Homo sapiens, 10 μM, MTT): 41.7 ± 1.1% | inhibition at 30 µM (HeLa cells [1]; Homo sapiens, 30 μM, MTT): 93.73 ± 0.36% | inhibition at 10 µM (A2780 cells; [7]): 47.6 ± 1.58% | inhibition at 30 µM (A2780 cells; [8]): 73 ± 0.47%

Structure (SMILES): Cc1c(O)ccc2c1CCc1cc(O)cc(C=O)c1-2 [2,7-dihydroxy-1-methyl-5-aldehyde-9,10-dihydrophenanthrene]
IC50 (MCF-7 cells [4]): 9.17 µM | IC50 (HeLa cells [5]): 19.6 µM

Structure (SMILES): COc1cccc2c1C(=O)c1c(O)c3c(c(O)c1C2=O)C[C@@](O)(C(=O)CO)C[C@@H]3O[C@H]1C[C@H](N)[C@H](O)[C@H](C)O1 [adriamycin, reference compound]
IC50 (MCF-7 cells [4]): 0.406 µM | IC50 (HeLa cells [5]): 0.539 µM

IC50 (HeLa cells [1]; Homo sapiens, MTT): 1.86 µM
Structure (SMILES): C=Cc1c(C)c(O)cc2c1-c1cc(-c3cc4c(c(C)c3O)CCc3cc(O)c(C)c(C=C)c3-4)c(O)c(C)c1CC2 [Compound 2, compressin B]
inhibition at 10 µM (SiHa cells; 10 μM, MTT): < 10% | inhibition at 30 µM (SiHa cells; 30 μM, MTT): 32.8 ± 0.88% | inhibition at 10 µM (HeLa cells [1]; Homo sapiens, 10 μM, MTT): 92.03 ± 0.44% | inhibition at 30 µM (HeLa cells [1]; Homo sapiens, 30 μM, MTT): 92.38 ± 0.15% | inhibition at 10 µM (A2780 cells; [7]): < 10% | inhibition at 30 µM (A2780 cells; [8]): 64.8 ± 1.95%

Structure (SMILES): COC(C)c1cc(O)cc2ccc3c(C)c(O)ccc3c12 (stereo not drawn) [5-(1-methoxyethyl)-1-methyl-phenanthren-2,7-diol]
IC50 (MCF-7 cells [6]): 10.9 µM

Structure (SMILES): C=Cc1cc(O)cc2c1-c1cc(-c3cc4c(c(C)c3O)CCc3cc(O)cc(C=C)c3-4)c(O)c(C)c1CC2 [Compound 8, effususin A]
inhibition at 10 µM (SiHa cells; 10 μM, MTT): < 10% | inhibition at 30 µM (SiHa cells; 30 μM, MTT): 14.4 ± 1.48% | inhibition at 10 µM (HeLa cells [1]; Homo sapiens, 10 μM, MTT): < 10% | inhibition at 30 µM (HeLa cells [1]; Homo sapiens, 30 μM, MTT): 10.4 ± 0.47% | inhibition at 10 µM (A2780 cells; [7]): < 10% | inhibition at 30 µM (A2780 cells; [8]): 72.7 ± 1.82%
